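Where inhibition never reached the appropriate level, the endpoint shown equals the highest concentration tested. Otherwise, values were interpolated linearly from a five-concentration, 48-hour dose response in 96-well plates. Abbreviation: GI50, concentration required for 50% inhibition of growth.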 Active and inactive are the calls of the source. No stated cut-off is given here; in the data, active = GI50 up to about 1.1 µM and inactive = higher.
Columns and labels:
Assay in all cases: NCI-60 cell line screen, 48 h
SK-MEL-2 = test system: SK-MEL-2
SN12C = test system: SN12C
K562 = test system: K562
SF-539 = test system: SF-539
A549 = test system: A549
PC-3 = test system: PC-3
CAKI-1 = test system: CAKI-1
MOLT-4 = test system: MOLT-4
MDA-MB-231 = test system: MDA-MB-231
IGROV-1 = test system: IGROV-1
BT-549 = test system: BT-549
OVCAR-3 = test system: OVCAR-3
DU-145 = test system: DU-145
HCT-116 = test system: HCT-116
UACC-62 = test system: UACC-62
MDA-MB-435 = test system: MDA-MB-435
NCI-H226 = test system: NCI-H226
RPMI-8226 = test system: RPMI-8226
SW-620 = test system: SW-620
M14 = test system: M14
U-251 = test system: U-251
KM12 = test system: KM12
UACC-257 = test system: UACC-257
MCF7 = test system: MCF7
786-0 = test system: 786-0
SNB-75 = test system: SNB-75
NCI/ADR-RES = test system: NCI/ADR-RES
Malme-3M = test system: Malme-3M
COLO 205 = test system: COLO 205
SK-OV-3 = test system: SK-OV-3
NCI-H460 = test system: NCI-H460
Hs-578T = test system: Hs-578T
NCI-H23 = test system: NCI-H23
SNB-19 = test system: SNB-19
HT-29 = test system: HT-29
MDA-N = test system: MDA-N
TK-10 = test system: TK-10
SK-MEL-28 = test system: SK-MEL-28
UO-31 = test system: UO-31
SK-MEL-5 = test system: SK-MEL-5
RXF 393 = test system: RXF 393
SF-268 = test system: SF-268
HL-60 = test system: HL-60
SR = test system: SR
OVCAR-4 = test system: OVCAR-4
CCRF-CEM = test system: CCRF-CEM
HOP-62 = test system: HOP-62
SF-295 = test system: SF-295
HCT-15 = test system: HCT-15
OVCAR-5 = test system: OVCAR-5
OVCAR-8 = test system: OVCAR-8
A498 = test system: A498
LOX IMVI = test system: LOX IMVI
HCC 2998 = test system: HCC 2998
ACHN = test system: ACHN
NCI-H522 = test system: NCI-H522
EKVX = test system: EKVX
HOP-92 = test system: HOP-92

For `COC(=O)c1c(O)ccc2c1c1c(n2Cc2ccccc2)C(=O)c2ccccc2C1`, the GI50 (SK-MEL-2) was 43.6 µM (inactive), the GI50 (SN12C) was 21.6 µM (inactive) and the GI50 (K562) was 2.84 µM (inactive). For the same compound, the GI50 (SF-539) was 26.2 µM (inactive), the GI50 (A549) was 30.8 µM (inactive) and the GI50 (PC-3) was 20 µM (inactive). The GI50 (CAKI-1) was 36.5 µM (inactive), the GI50 (MOLT-4) was 3.17 µM (inactive) and the GI50 (MDA-MB-231) was 39.7 µM (inactive). For the same compound, the GI50 (IGROV-1) was 40.6 µM (inactive), the GI50 (BT-549) was 58.6 µM (inactive) and the GI50 (OVCAR-3) was 43 µM (inactive). For the same compound, the GI50 (DU-145) was 99.3 µM (inactive), the GI50 (HCT-116) was 54.6 µM (inactive) and the GI50 (UACC-62) was 36.9 µM (inactive). The GI50 (MDA-MB-435) was 33 µM (inactive), the GI50 (NCI-H226) was 46.3 µM (inactive) and the GI50 (RPMI-8226) was 12.4 µM (inactive). For the same compound, the GI50 (SW-620) was 74 µM (inactive), the GI50 (M14) was 52.4 µM (inactive) and the GI50 (U-251) was 38 µM (inactive). For the same compound, the GI50 (KM12) was 35.1 µM (inactive), the GI50 (UACC-257) was 50.6 µM (inactive) and the GI50 (MCF7) was 25.4 µM (inactive). The GI50 (786-0) was 39.2 µM (inactive), the GI50 (SNB-75) was 20.6 µM (inactive) and the GI50 (NCI/ADR-RES) was 25.8 µM (inactive). The GI50 (Malme-3M) was 69.5 µM (inactive), the GI50 (COLO 205) was 15.4 µM (inactive) and the GI50 (SK-OV-3) was 31.9 µM (inactive). For the same compound, the GI50 (NCI-H460) was 31.9 µM (inactive), the GI50 (Hs-578T) was 86.5 µM (inactive) and the GI50 (NCI-H23) was 41.2 µM (inactive). The GI50 (SNB-19) was 95.5 µM (inactive), the GI50 (HT-29) was 18.4 µM (inactive) and the GI50 (MDA-N) was 43.4 µM (inactive). The GI50 (TK-10) was 65.9 µM (inactive), the GI50 (SK-MEL-28) was 44.6 µM (inactive) and the GI50 (UO-31) was 49.4 µM (inactive). The GI50 (SK-MEL-5) was 50 µM (inactive), the GI50 (RXF 393) was 21.3 µM (inactive) and the GI50 (SF-268) was 39 µM (inactive). For the same compound, the GI50 (HL-60) was 12.6 µM (inactive), the GI50 (SR) was 7.48 µM (inactive) and the GI50 (OVCAR-4) was 18.6 µM (inactive). The GI50 (CCRF-CEM) was 21.1 µM (inactive), the GI50 (HOP-62) was > 100 µM (inactive) and the GI50 (SF-295) was 27.1 µM (inactive). For the same compound, the GI50 (HCT-15) was 35.1 µM, the GI50 (OVCAR-5) was 0.0282 µM (active) and the GI50 (OVCAR-8) was 39.7 µM (inactive). The GI50 (A498) was 64.7 µM (inactive) and the GI50 (LOX IMVI) was 26.2 µM (inactive).
With `CC(=O)OCCOCn1c2c(c(=O)[nH]c1=O)CCC2` the GI50 (SK-MEL-2) was > 100 µM (inactive), the GI50 (SN12C) was > 100 µM (inactive) and the GI50 (K562) was > 100 µM (inactive). For the same compound, the GI50 (SF-539) was > 100 µM (inactive), the GI50 (A549) was > 100 µM (inactive) and the GI50 (PC-3) was > 100 µM (inactive). The GI50 (CAKI-1) was > 100 µM (inactive), the GI50 (HCC 2998) was > 100 µM (inactive) and the GI50 (MOLT-4) was > 100 µM (inactive). For the same compound, the GI50 (MDA-MB-231) was > 100 µM (inactive), the GI50 (IGROV-1) was > 100 µM (inactive) and the GI50 (BT-549) was > 100 µM (inactive). The GI50 (OVCAR-3) was > 100 µM (inactive), the GI50 (DU-145) was > 100 µM (inactive) and the GI50 (HCT-116) was > 100 µM (inactive). The GI50 (MDA-MB-435) was > 100 µM (inactive), the GI50 (NCI-H226) was > 100 µM (inactive) and the GI50 (RPMI-8226) was > 100 µM (inactive). The GI50 (SW-620) was > 100 µM (inactive), the GI50 (M14) was > 100 µM (inactive) and the GI50 (ACHN) was > 100 µM (inactive). The GI50 (U-251) was > 100 µM (inactive), the GI50 (KM12) was > 100 µM (inactive) and the GI50 (UACC-257) was > 100 µM (inactive). The GI50 (NCI-H522) was > 100 µM (inactive), the GI50 (MCF7) was > 100 µM (inactive) and the GI50 (786-0) was > 100 µM (inactive). For the same compound, the GI50 (SNB-75) was > 100 µM (inactive), the GI50 (Malme-3M) was > 100 µM (inactive) and the GI50 (COLO 205) was > 100 µM (inactive). The GI50 (Hs-578T) was > 100 µM (inactive), the GI50 (NCI-H23) was > 100 µM (inactive) and the GI50 (SNB-19) was 8.53 µM (inactive). For the same compound, the GI50 (HT-29) was > 100 µM (inactive), the GI50 (MDA-N) was > 100 µM (inactive) and the GI50 (TK-10) was > 100 µM (inactive). For the same compound, the GI50 (SK-MEL-28) was > 100 µM (inactive), the GI50 (UO-31) was > 100 µM (inactive) and the GI50 (SK-MEL-5) was > 100 µM (inactive). The GI50 (RXF 393) was > 100 µM (inactive), the GI50 (SF-268) was > 100 µM (inactive) and the GI50 (HL-60) was > 100 µM (inactive). For the same compound, the GI50 (SR) was > 100 µM (inactive), the GI50 (OVCAR-4) was > 100 µM (inactive) and the GI50 (EKVX) was > 100 µM (inactive). The GI50 (HOP-92) was > 100 µM (inactive), the GI50 (CCRF-CEM) was > 100 µM (inactive) and the GI50 (HOP-62) was > 100 µM (inactive). The GI50 (SF-295) was > 100 µM (inactive), the GI50 (HCT-15) was greater than 100 µM and the GI50 (OVCAR-5) was > 100 µM (inactive). The GI50 (OVCAR-8) was > 100 µM (inactive) and the GI50 (LOX IMVI) was > 100 µM (inactive).
`NS(=O)(=O)c1cc(S(N)(=O)=O)c(NC(=O)Nc2ccc(Cl)c(Cl)c2)c(Cl)c1Cl` was tested, and the GI50 (SK-MEL-2) was > 100 µM (inactive), the GI50 (SN12C) was > 100 µM (inactive) and the GI50 (K562) was > 100 µM (inactive). The GI50 (A549) was > 100 µM (inactive), the GI50 (PC-3) was > 100 µM (inactive) and the GI50 (CAKI-1) was > 100 µM (inactive). The GI50 (HCC 2998) was > 100 µM (inactive), the GI50 (MOLT-4) was > 100 µM (inactive) and the GI50 (MDA-MB-231) was > 100 µM (inactive). For the same compound, the GI50 (IGROV-1) was > 100 µM (inactive), the GI50 (BT-549) was > 100 µM (inactive) and the GI50 (OVCAR-3) was > 100 µM (inactive). The GI50 (HCT-116) was > 100 µM (inactive), the GI50 (UACC-62) was > 100 µM (inactive) and the GI50 (MDA-MB-435) was > 100 µM (inactive). The GI50 (NCI-H226) was 96.2 µM (inactive), the GI50 (RPMI-8226) was > 100 µM (inactive) and the GI50 (SW-620) was > 100 µM (inactive). The GI50 (M14) was > 100 µM (inactive), the GI50 (ACHN) was > 100 µM (inactive) and the GI50 (U-251) was > 100 µM (inactive). For the same compound, the GI50 (KM12) was > 100 µM (inactive), the GI50 (UACC-257) was > 100 µM (inactive) and the GI50 (NCI-H522) was > 100 µM (inactive). The GI50 (MCF7) was > 100 µM (inactive), the GI50 (786-0) was > 100 µM (inactive) and the GI50 (NCI/ADR-RES) was > 100 µM (inactive). For the same compound, the GI50 (COLO 205) was 40.6 µM (inactive), the GI50 (SK-OV-3) was > 100 µM (inactive) and the GI50 (NCI-H460) was > 100 µM (inactive). For the same compound, the GI50 (Hs-578T) was > 100 µM (inactive), the GI50 (NCI-H23) was > 100 µM (inactive) and the GI50 (SNB-19) was > 100 µM (inactive). The GI50 (HT-29) was > 100 µM (inactive), the GI50 (MDA-N) was > 100 µM (inactive) and the GI50 (TK-10) was > 100 µM (inactive). The GI50 (SK-MEL-28) was > 100 µM (inactive), the GI50 (UO-31) was > 100 µM (inactive) and the GI50 (SK-MEL-5) was > 100 µM (inactive). The GI50 (SF-268) was > 100 µM (inactive), the GI50 (SR) was > 100 µM (inactive) and the GI50 (OVCAR-4) was > 100 µM (inactive). The GI50 (EKVX) was > 100 µM (inactive), the GI50 (HOP-92) was 4.18 µM (inactive) and the GI50 (SF-295) was > 100 µM (inactive). For the same compound, the GI50 (HCT-15) was greater than 100 µM, the GI50 (OVCAR-5) was > 100 µM (inactive) and the GI50 (OVCAR-8) was > 100 µM (inactive). For the same compound, the GI50 (LOX IMVI) was > 100 µM (inactive).

— ChEMBL document CHEMBL1201862, “PubChem BioAssay data set” (2004)
